Patent US9181290B2, “Inhibition of biofilm formation by 1,2,3,4,6-penta-O-galloyl-D-glucopyranose” (CHANG GUNG UNIVERSITY, priority 2011, dated 2015)

Legend:
Acinetobacter baumannii = test: Anti-biofilm activity (data not shown); format: cell-based
[1] = tested on: S. aureus clinical strain SA13 (MSSA); test: Growth (A578) and biofilm (A595) in polystyrene plates; format: cell-based, Staphylococcus aureus; conditions: 12.5 μM β-PGG, 6 hr
Protocol: (§1) An overnight bacterial culture was 200-fold diluted with TSBg, and a 200 μL aliquot of the diluted culture was seeded into each well of 96-well polystyrene microtiter plates and incubated at 37° C. for a designated period of time. Cell growth was determined by measuring the absorbance at 578 nm (A578) with a microtiter plate reader (SpectraMax 340, Molecular Devices). After washing with PBS twice to remove suspended cells, the wells were stained with 0.1% (w/v) crystal violet in 10% ethanol and then treated with 30% acetic acid in dH2O, followed by detecting the absorbance at 595 nm (A595) with the microtiter plate reader to quantify the amount of biofilm formed on polystyrene surface.

[2] = tested on: S. aureus clinical strain SA435 (MRSA); test: as above; format: cell-based, Staphylococcus aureus; conditions: 12.5 μM β-PGG, 6 hr
Protocol: as §1

[3] = tested on: S. aureus clinical strain SA130 (MRSA); test: as above; format: cell-based, Staphylococcus aureus; conditions: 12.5 μM β-PGG, 6 hr
Protocol: as §1

[4] = tested on: S. aureus clinical strain SA41 (MSSA); test: as above; format: cell-based, Staphylococcus aureus; conditions: 12.5 μM β-PGG, 6 hr
Protocol: as §1

[5] = tested on: S. aureus clinical strain SA703 (MRSA); test: as above; format: cell-based, Staphylococcus aureus; conditions: 12.5 μM β-PGG, 6 hr
Protocol: as §1

[6] = tested on: S. aureus clinical strain SA486 (MRSA); test: as above; format: cell-based, Staphylococcus aureus; conditions: 12.5 μM β-PGG, 6 hr
Protocol: as §1

[7] = tested on: S. aureus clinical strain SA44 (MRSA); test: as above; format: cell-based, Staphylococcus aureus; conditions: 12.5 μM β-PGG, 6 hr
Protocol: as §1

[8] = tested on: S. aureus clinical strain SA285 (MSSA); test: as above; format: cell-based, Staphylococcus aureus; conditions: 12.5 μM β-PGG, 6 hr
Protocol: as §1

[9] = tested on: S. aureus clinical strain SAChu (MRSA); test: as above; format: cell-based, Staphylococcus aureus; conditions: 12.5 μM β-PGG, 6 hr
Protocol: as §1

[10] = tested on: S. aureus clinical strain SA33 (MSSA); test: as above; format: cell-based, Staphylococcus aureus; conditions: 12.5 μM β-PGG, 6 hr
Protocol: as §1

[11] = tested on: S. aureus clinical strain SA289 (MSSA); test: as above; format: cell-based, Staphylococcus aureus; conditions: 12.5 μM β-PGG, 6 hr
Protocol: as §1

[12] = tested on: S. aureus clinical strain SA288 (MSSA); test: as above; format: cell-based, Staphylococcus aureus; conditions: 12.5 μM β-PGG, 6 hr
Protocol: as §1

S. aureus SA113 = test: CFU counting of cells adhered to polycarbonate surface; format: cell-based, Staphylococcus aureus
From the text: To count the number of viable cells, the removed suspended cells were suspended in PBS by pipetting, and the resultant cell suspension was sonicated and serially diluted and subsequently plated on TSBg agar plate for colony forming unit (CFU) counting according to a method described earlier (S. Schlag et al. (2007), J. Bacteriol., 189:7911-7919).
To quantify the amount of biofilm formed on polycarbonate surface, a 13-mm-diameter polycarbonate disc (Thermanox, Nalgene Nunc International, Rochester, N.Y., USA) was placed in a well of a 24-well microtiter plate, followed by the addition of 1 mL aliquot of the diluted bacterial culture. After incubation at 37° C. for a designated period of time, viable cells were washed off the surface of the polycarbonate disc with PBS and counted as described above, while the PBS-washed polycarbonate disc was subjected to crystal violet staining for biofilm quantification as described above.
In addition to biofilm formation, the number of cells attached to polystyrene surface and polycarbonate surface were also counted.

S aureus SA113 = test: Bacterial attachment onto glass coverslips (data not shown); format: cell-based, Staphylococcus aureus

O=C(OC[C@H]1O[C@@H](OC(=O)c2cc(O)c(O)c(O)c2)[C@H](OC(=O)c2cc(O)c(O)c(O)c2)[C@@H](OC(=O)c2cc(O)c(O)c(O)c2)[C@@H]1OC(=O)c1cc(O)c(O)c(O)c1)c1cc(O)c(O)c(O)c1 [β-PGG, 1,2,3,4,6-penta-O-galloyl-β-D-glucopyranose]
anti-biofilm activity (Acinetobacter baumannii): potent to mild anti-biofilm activity | Growth (A578) ([1]; 0 μM: 0.69 ± 0.09): 0.67 ± 0.06 | Biofilm (A595) ([1]; 0 μM: 0.98 ± 0.13): 0.12 ± 0.04 | Growth (A578) ([2]; 0 μM: 0.64 ± 0.10): 0.67 ± 0.09 | Biofilm (A595) ([2]; 0 μM: 0.97 ± 0.09): 0.46 ± 0.06 | Growth (A578) ([3]; 0 μM: 0.61 ± 0.12): 0.62 ± 0.17 | Biofilm (A595) ([3]; 0 μM: 3.05 ± 0.10): 0.32 ± 0.04 | Growth (A578) ([4]; 0 μM: 0.65 ± 0.02): 0.61 ± 0.05 | Biofilm (A595) ([4]; 0 μM: 1.67 ± 0.27): 0.36 ± 0.05 | Growth (A578) ([5]; 0 μM: 0.74 ± 0.10): 0.70 ± 0.07 | Biofilm (A595) ([5]; 0 μM: 2.33 ± 0.02): 0.88 ± 0.07 | Growth (A578) ([6]; 0 μM: 0.76 ± 0.08): 0.65 ± 0.02 | Biofilm (A595) ([6]; 0 μM: 1.94 ± 0.19): 0.26 ± 0.07 | Growth (A578) ([7]; 0 μM: 0.66 ± 0.08): 0.64 ± 0.04 | Biofilm (A595) ([7]; 0 μM: 1.33 ± 0.01): 0.46 ± 0.01 | Growth (A578) ([8]; 0 μM: 0.56 ± 0.09): 0.46 ± 0.03 | Biofilm (A595) ([8]; 0 μM: 0.86 ± 0.09): 0.16 ± 0.02 | Growth (A578) ([9]; 0 μM: 0.56 ± 0.02): 0.52 ± 0.04 | Biofilm (A595) ([9]; 0 μM: 8.06 ± 0.10): 0.77 ± 0.11 | Growth (A578) ([10]; 0 μM: 0.79 ± 0.01): 0.79 ± 0.04 | Biofilm (A595) ([10]; 0 μM: 0.80 ± 0.07): 0.13 ± 0.03 | Growth (A578) ([11]; 0 μM: 0.77 ± 0.02): 0.72 ± 0.07 | Biofilm (A595) ([11]; 0 μM: 1.16 ± 0.01): 0.35 ± 0.01 | Growth (A578) ([12]; 0 μM: 0.55 ± 0.01): 0.50 ± 0.01 | Biofilm (A595) ([12]; 0 μM: 0.83 ± 0.02): 0.10 ± 0.01 | number of cells attached to polycarbonate surface (S. aureus SA113; 6.25 μM, 20 min, DMSO control 7×10^5): 2.9×10^5 CFU | number of cells attached to polycarbonate surface (S. aureus SA113; 6.25 μM, 40 min, DMSO control 1.1×10^6): 2.3×10^5 CFU | number of cells attached to polycarbonate surface (S. aureus SA113; 6.25 μM, 60 min, DMSO control 2×10^6): 3.5×10^5 CFU | number of cells attached to polycarbonate surface (S. aureus SA113; 12.5 μM, 20 min, DMSO control 7×10^5): 1.0×10^5 CFU | number of cells attached to polycarbonate surface (S. aureus SA113; 12.5 μM, 40 min, DMSO control 1.1×10^6): 8×10^4 CFU | number of cells attached to polycarbonate surface (S. aureus SA113; 12.5 μM, 60 min, DMSO control 2×10^6): 5×10^4 CFU | bacterial attachment onto glass coverslips (S aureus SA113): inhibited bacterial attachment onto glass coverslips
